Experimental data published in article PMC9511493, “2-(Fluoromethoxy)-4′-(S-methanesulfonimidoyl)-1,1′-biphenyl (UCM-1306), an Orally Bioavailable Positive Allosteric Modulator of the Human Dopamine D1 Receptor for Parkinson’s Disease” (Journal of Medicinal Chemistry, 2022).

Columns and labels:
CYP2C9 = biological target: T1, CYP2C9 (Homo sapiens, UniProt P11712); assay: cytochrome inhibition, fluorescence assay, CYP2C9; assay type: in vitro ADME
T1 construct: host or cells: insect cell microsomes
T1 sequence (P11712 whole entry): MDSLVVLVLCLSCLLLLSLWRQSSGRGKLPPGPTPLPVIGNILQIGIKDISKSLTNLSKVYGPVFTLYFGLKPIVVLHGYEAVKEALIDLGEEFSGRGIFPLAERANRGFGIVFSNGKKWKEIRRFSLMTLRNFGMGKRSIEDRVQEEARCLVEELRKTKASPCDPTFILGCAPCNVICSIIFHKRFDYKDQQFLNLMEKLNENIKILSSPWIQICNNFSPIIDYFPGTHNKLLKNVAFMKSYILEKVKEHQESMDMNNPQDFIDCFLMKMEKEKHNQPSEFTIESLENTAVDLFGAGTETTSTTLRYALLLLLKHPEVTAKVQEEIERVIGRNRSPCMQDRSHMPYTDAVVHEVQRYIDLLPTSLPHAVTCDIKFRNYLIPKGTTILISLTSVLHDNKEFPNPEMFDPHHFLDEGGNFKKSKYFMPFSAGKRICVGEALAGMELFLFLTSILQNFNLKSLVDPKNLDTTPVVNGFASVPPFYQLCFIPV
Protocol: (§1) Cytochrome inhibition. The objective of this study was to screen the potential of test […]
(§2) performed using recombinant isoforms CYP1A2, CYP2C9, CYP2C19, CYP2D6, and CYP3A4, and probe substrates with fluorescent detection.
(§3) Assays were conducted in a 200 µL volume in 96-well microtiter plates (COSTAR 3915).
(§4) Addition of cofactor-buffer mixture (KH2PO4 buffer, 1.3 mM NADP, 3.3 mM MgCl2, 3.3 mM glucose -6- phosphate, and 0.4 U/mL glucose -6- phosphate dehydrogenase), supersomes control, standard inhibitors (furafyline, tranylzypromine, ketoconazole, sulfaphenazole, and quinidine from Sigma Aldrich) and test compound to the plate was carried out by a liquid handling station (Zephyr Caliper). The plate was then pre-incubated at 37 °C for 5 min, and the reaction was initiated by the addition of the pr e - warmed enzyme/substrate (E/S) mix. […]
(§5) Fluorescence per well was measured using a fluorescence plate reader (Tecan Infinite M1000 pro) and percentage of inhibition was calculated. hERG ion channel inhibition. […]

hERG potassium channel = biological target: T2, hERG potassium channel (Homo sapiens, UniProt Q12809); assay: hERG ion channel inhibition (Fluxor potassium assay, CHO cells); assay type: cell-based; details: blockade of the K+ channel current at 10 μM
T2 construct: expressed in transfected cells; host or cells: CHO cell line
T2 sequence (Q12809 whole entry): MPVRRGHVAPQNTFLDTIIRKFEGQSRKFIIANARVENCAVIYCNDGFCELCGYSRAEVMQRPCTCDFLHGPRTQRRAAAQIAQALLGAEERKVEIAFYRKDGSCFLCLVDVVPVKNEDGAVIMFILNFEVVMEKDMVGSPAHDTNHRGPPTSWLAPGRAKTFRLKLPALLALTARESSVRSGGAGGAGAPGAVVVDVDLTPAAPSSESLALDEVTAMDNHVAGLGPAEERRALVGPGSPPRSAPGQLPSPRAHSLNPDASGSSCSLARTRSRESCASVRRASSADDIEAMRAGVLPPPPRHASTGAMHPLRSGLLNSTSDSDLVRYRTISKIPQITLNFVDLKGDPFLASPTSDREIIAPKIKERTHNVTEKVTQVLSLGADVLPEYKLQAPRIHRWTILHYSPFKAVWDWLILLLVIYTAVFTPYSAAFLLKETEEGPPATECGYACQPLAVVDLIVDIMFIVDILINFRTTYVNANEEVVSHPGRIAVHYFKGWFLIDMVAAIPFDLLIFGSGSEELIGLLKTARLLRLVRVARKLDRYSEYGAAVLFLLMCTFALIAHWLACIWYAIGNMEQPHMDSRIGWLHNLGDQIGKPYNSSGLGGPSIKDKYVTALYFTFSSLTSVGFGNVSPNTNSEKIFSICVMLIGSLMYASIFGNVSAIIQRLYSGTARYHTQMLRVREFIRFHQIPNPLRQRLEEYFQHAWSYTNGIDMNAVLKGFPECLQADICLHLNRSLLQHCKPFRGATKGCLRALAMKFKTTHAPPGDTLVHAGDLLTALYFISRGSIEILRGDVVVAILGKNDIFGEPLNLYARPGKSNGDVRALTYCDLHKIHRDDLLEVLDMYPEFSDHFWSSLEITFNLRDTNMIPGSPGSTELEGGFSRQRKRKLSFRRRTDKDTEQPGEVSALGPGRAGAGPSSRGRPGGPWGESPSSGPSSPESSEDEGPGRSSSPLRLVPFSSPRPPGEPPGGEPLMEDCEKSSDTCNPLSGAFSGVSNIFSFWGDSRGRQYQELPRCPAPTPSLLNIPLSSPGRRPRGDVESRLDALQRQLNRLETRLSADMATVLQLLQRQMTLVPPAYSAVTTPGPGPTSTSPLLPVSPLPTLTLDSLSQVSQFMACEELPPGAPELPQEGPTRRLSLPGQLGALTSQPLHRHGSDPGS
Protocol: CYP1A2 and CYP2C19, 7- methoxy- 4(trifluoromethyl)coumarin for CYP2C9, 3-[2-(N,N- diethyl -N-methylammonium)ethyl]-7- methoxy- 4- methylcoumarin for CYP2D6, and 7- benzyloxytrifluoromethylcoumarin for CYP3A4), to give the final assay concentrations in a reaction volume of 200 µL. Reactions were terminated after specific time for each cytochrome by addition of STOP solution (0.5 M 80:20 ACN/TrisHCl). […]
hERG ion channel inhibition. The assay was carried out using a CHO cell line transfected with the hERG potassium channel. C ells were seeded (2500 cells/well) 72 h before the assay on a 384-well black plate (Greiner 781091). Cell s were maintained at 37 °C in a 5% CO2 atmosphere for 24 h and at 30 °C in a 5% CO 2 atmosphere for 48 h. hERG activity was measured by using the FluxorTM Potassium Ion Chanel Assay Kit (Thermo Fisher F10016). Medium was replaced for 20 µL of loading buffer and cells were incubated for 60 min at 25 °C, protected from direct light. After incubation, l oading buffer was replaced for a ssay buffer and compounds were incubated for 30 min at 25 °C. After this time, 5 µL of stimulus buffer was added to each well and fluorescence was read (λ ex = 490 nm, λem = 525 nm) every second after the establishment of a baseline line using an imaging plate reader system (FDSS7000EX, Hamamatsu®). The fluorescent signal was […]

human D1R [1] = biological target: T3, human D1R (Homo sapiens, UniProt P21728); assay: potentiator-mode cAMP assay (HTRF) in SK-N-MC neuroblastoma cells endogenously expressing human D1R; assay type: cell-based; details: for potentiation of DA effect at different fixed concentrations: 3: 0.1–10 μM, 26: 1, 5 and 10 μM; for cAMP response in the absence of DA (agonist activity): no DA
T3 construct: endogenously expressed human D1R in the SK-N-MC cell line (ATCC); host or cells: SK-N-MC human neuroblastoma cells
T3 sequence (P21728 whole entry): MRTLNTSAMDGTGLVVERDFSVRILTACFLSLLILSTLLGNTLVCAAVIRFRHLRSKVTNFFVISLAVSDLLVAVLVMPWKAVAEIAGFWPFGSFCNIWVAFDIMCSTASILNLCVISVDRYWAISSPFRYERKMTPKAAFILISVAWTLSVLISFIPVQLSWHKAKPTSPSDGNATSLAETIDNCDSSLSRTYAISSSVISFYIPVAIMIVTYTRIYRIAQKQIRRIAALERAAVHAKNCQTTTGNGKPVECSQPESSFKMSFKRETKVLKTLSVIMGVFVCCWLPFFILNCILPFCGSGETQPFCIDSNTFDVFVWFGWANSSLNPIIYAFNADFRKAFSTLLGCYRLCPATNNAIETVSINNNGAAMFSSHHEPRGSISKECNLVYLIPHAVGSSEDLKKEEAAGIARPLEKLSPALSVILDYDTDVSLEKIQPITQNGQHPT

human D3R = biological target: T4, human D3R (Homo sapiens, UniProt P35462); assay: PatHunter beta-arrestin assay at human D3R; assay type: cell-based; details: 10 μM compound
T4 construct: host or cells: cells supplied with the PatHunter Beta-arrestin eXpress GPCR assay kit
T4 sequence (P35462 whole entry): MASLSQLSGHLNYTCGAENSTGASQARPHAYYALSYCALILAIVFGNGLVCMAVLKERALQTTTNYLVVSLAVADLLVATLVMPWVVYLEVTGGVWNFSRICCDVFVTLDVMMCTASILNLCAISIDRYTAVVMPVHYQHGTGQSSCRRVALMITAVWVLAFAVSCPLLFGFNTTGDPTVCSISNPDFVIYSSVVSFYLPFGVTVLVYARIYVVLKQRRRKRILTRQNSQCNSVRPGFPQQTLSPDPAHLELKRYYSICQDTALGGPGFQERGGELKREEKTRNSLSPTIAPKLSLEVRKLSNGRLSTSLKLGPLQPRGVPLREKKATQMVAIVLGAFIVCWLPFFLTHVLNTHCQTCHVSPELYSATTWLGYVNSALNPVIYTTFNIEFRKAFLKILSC
Protocol: Functional studies at both human D3 and D4 receptors were carried out in human D3 and D4 receptors, using a PatHunter Beta-arrestin eXpress GPCR assay kit from DiscoverX. Briefly, cells were plated and maintained for 48 h at 37 °C in a 5% CO2 atmosphere in cell plating reagent provided in the kit. After this time, test compounds were added to the cells and incubated for 30 min at 37 °C. Dopamine was added to the cells and incubated for an additional 90 min at 37 °C. Cells were then treated with the working detection solution provided with the kit for 1 h and beta-arrestin translocation was measured by luminescence detection (integration time = 500 ms) in a Tecan M1000 Genius Pro reader. Data were normalized to dopamine maximum effect and fitted to a 4-parameter logistic equation using Prism v2.1 software (GraphPad Inc).

CYP2C19 = biological target: T5, CYP2C19 (Homo sapiens, UniProt P33261); assay: cytochrome inhibition, fluorescence assay, CYP2C19; assay type: in vitro ADME
T5 construct: host or cells: insect cell microsomes
T5 sequence (P33261 whole entry): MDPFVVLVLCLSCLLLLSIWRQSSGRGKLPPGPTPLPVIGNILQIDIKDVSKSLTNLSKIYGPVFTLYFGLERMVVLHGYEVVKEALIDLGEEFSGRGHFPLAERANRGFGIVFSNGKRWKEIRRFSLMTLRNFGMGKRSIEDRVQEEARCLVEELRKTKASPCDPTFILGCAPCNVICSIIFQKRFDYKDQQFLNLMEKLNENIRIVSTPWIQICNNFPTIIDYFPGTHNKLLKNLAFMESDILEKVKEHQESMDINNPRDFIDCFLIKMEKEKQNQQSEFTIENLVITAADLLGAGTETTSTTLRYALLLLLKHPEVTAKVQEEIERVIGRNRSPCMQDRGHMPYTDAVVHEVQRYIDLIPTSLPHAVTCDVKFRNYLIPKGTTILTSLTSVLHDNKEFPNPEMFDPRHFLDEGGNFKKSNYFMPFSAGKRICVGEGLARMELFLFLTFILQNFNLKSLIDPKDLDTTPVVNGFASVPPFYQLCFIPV
Protocol: as §1, §2, §3, §4, §5

human D1R [2] = biological target: T3, human D1R; assay: potentiator-mode cAMP assay (HTRF) in SK-N-MC neuroblastoma cells endogenously expressing human D1R; assay type: cell-based; details: for EC50: potency of the compound at the DA EC70 concentration
Protocol: An in-house chemical library of 250 compounds was screened using an in vitro assay measuring accumulation of cAMP in a human neuroblastoma SK-N-MC cell line stably expressing physiological levels of the D1R but not the D5R.[41] To assess allosteric modulation of the D1R, cells were treated with a fixed concentration of the test compounds (10 μM) for 15 min and then co-incubated with increasing concentrations of the endogenous agonist DA. The cAMP concentration was quantified by homogeneous time-resolved fluorescence energy transfer (HTRF) and the effect of each compound on the DA concentration–response curve was measured.
The PAM efficacy was measured as the percentage of increase over DA EC70 and the potency as the EC50 observed in the concentration–response curve.
Functional studies at human D1 and D2 receptors were carried out in endogenously expressed human D1R in the SK-N-MC cell line (ATCC), and recombinant human D2R stably transfected in an in-house CHO cell line. Cells were thawed and seeded into a black 96-well plate (1 × 10^4 cells/well for SK-N-MC cell line, 5 × 10^3 cells/well for CHO cell line) in Opti-MEM containing 500 μM IBMX (3-isobutyl-1-methylxanthine).

[3] = percentage of inhibition at 10 μM

Structure (SMILES): O=Cc1ccc(-c2ccccc2OCF)cc1 [Compound 3, 2′-(Fluoromethoxy)[1,1′-biphenyl]-4-carbaldehyde]
- CYP2C9 (%) (CYP2C9; Table S1, concentration not given): inactive
- hERG inhibition (%) (hERG potassium channel): 11 ± 2%
- potentiation of DA effect at different fixed concentrations (human D1R [1]): concentration-dependent potentiation of DA effect
- cAMP response in the absence of DA (agonist activity) (human D1R [1]): No cAMP response
- enhancement of DA Emax at human D3 receptor (human D3R): did not enhance DA Emax
- IC50 (CYP2C19): 6.53 ± 1.12 µM
- EC50 (human D1R [2]): 12.7 ± 2.4 µM

Structure (SMILES): CS(=N)(=O)c1ccc(-c2ccccc2OCF)cc1 (centres unmarked) [Compound 26, 2-(Fluoromethoxy)-4′-(S-methanesulfonimidoyl)-1,1′-biphenyl]
- CYP2C9 (%) (CYP2C9; [3]): 38 ± 3%
- hERG inhibition (%) (hERG potassium channel): 21%
- reversibility of the potentiation (human D1R [1]; 10 μM for 10 min then washing with assay buffer): reversible effect
- potentiation of DA effect at different fixed concentrations (human D1R [1]): potentiation of the DA Emax in a concentration-dependent manner
- cAMP response in the absence of DA (agonist activity) (human D1R [1]): no cAMP response
- receptor desensitization (human D1R [1]; preincubation for 1 h with 10 μM compound): does not induce receptor desensitization
- enhancement of DA Emax at human D3 receptor (human D3R): subtype selectivity
- CYP2C19 (%) (CYP2C19; [3]): 37 ± 2%
- Emax (human D1R [2]; SK-N-MC, concentration–response curve of the compound over DA EC70, read-out: % maximum increase (efficacy over DA EC70)): 45 ± 7%
- EC50 (human D1R [2]): 0.06 ± 0.01 µM
